molecular target: T1, human DGAT1 (Homo sapiens, UniProt O75907); test: DGAT1 enzyme inhibition assay (membrane preparation, LC/MS/MS readout); format: biochemical; settings: DGAT1 inhibitory activity, table at end of examples
T1 construct: made in house; host or cells: Sf9 cells (membrane preparation)
T1 sequence (O75907 1-488): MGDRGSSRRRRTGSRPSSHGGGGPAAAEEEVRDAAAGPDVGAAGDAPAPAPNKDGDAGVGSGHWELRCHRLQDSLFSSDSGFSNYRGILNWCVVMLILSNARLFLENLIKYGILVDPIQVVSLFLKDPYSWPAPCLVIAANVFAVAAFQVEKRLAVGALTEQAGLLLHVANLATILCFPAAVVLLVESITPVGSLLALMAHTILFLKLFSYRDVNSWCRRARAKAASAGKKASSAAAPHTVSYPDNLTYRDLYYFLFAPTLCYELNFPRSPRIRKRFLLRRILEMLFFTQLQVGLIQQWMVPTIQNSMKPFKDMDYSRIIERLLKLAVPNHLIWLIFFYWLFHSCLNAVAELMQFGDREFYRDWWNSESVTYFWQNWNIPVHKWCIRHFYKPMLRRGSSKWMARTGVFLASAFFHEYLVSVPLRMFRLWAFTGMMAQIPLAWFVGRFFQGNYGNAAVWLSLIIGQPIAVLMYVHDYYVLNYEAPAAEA
Procedure: The enzyme preparation used in this assay is a membrane preparation from Sf9 cells overexpressing human (His)6DGAT1. During all steps samples were chilled to 4° C. Sf9 cells expressing human (His)6DGAT1 were thawed at RT and re-suspended at a 10:1 ratio (mL buffer/g of cells) in 50 mM HEPES, 1× Complete Protease Inhibitor, pH 7.5.
The re-suspended pellet was homogenized for 1 min using a Brinkman PT 10/35 homogenizer with a 20 mm generator. Cells were lysed using Avestin Emulsiflex (chilled to 4° C.) at 10000-15000 psi. Lysate was centrifuged at 100,000×g for 1 h at 4° C. Supernatant was removed and pellets were re-suspended in 50 mM HEPES, 1× Complete Protease Inhibitor, pH 7.5 at ⅙ the volume of supernatant. Re-suspended pellets were pooled and homogenized with 10 strokes of a Glas-Col motor driven teflon pestle on setting 70. The protein concentration of the membrane preparation was quantified using BCA protein assay with 1% SDS. The membrane preparation was aliquoted, frozen on dry ice, and stored at −80° C.
For 50 mL, 25 mL of 0.2 M HEPES stock buffer, 0.5 mL of 1 M MgCl2 ([…]), and 24.5 mL of milli-Q H2O are added to the 55 mL Wheaton Potter-Elvehjem homogenizer. Enzyme preparation (0.1 mL) is added to buffer and the mixture is homogenized with 5 strokes on ice using the Glas-Col variable speed homogenizer system on setting 70.
For 50 mL, 0.5 mL 10 mM diolein is added to 9.5 mL of EtOH in a 50 mL Falcon screw cap conical centrifuge tube. Five mL of 10 mM sodium acetate pH 4.5 is added followed by 0.5 mL of 10 mM oleoyl-CoA. Finally, the remaining 4.5 mL of 10 mM sodium acetate pH 4.5 is added followed by 30 mL of milli-Q H20. The solution should be gently agitated by hand to induce mixing. The final concentrations of EtOH and sodium acetate are 20% and 2 mM, respectively.
Dry compounds are dissolved in the appropriate volume of DMSO to a final concentration of 10 mM. A 10-point, 3-fold dose response is used to evaluate compound potency. All dilutions are performed in DMSO in a Greiner 384-well microplate.
1. 2 μL of compound in DMSO is added to the appropriate wells. 2 μL of DMSO is added to 100% activity and 100% inhibition controls.
2. 25 μL of enzyme mix is added to all wells and plate(s) are incubated for 10 min at RT.
3. 10 μL of 20% acetic acid quench is added to 100% inhibition control wells. Plate(s) are vortexed using Troemner multi-tube vortexer (setting 7 for 10 sec).
4. 25 μL of substrate mix is added to all wells. Plate(s) are vortexed using Troemner multi-tube vortexer (setting 7 for 10 sec). Plate(s) are incubated for 30 min at RT.
5. 10 μL of 20% acetic acid quench is added to all wells. Plate(s) are vortexed using Troemner multi-tube vortexer (setting 7 for 10 sec).
6. 50 μL of 1-butanol w/glyceryl tripalmitoleate internal standard is added to all wells.
7. Plate(s) are sealed with super pierce strong plate sealer using the thermo-sealer.
8. Plate(s) are vortexed using Troemner multi-tube vortexer (setting 10 for 5 min).
9. Plate(s) are centrifuged at 162×g (1000 rpm for GH-3.8 rotor) for 5 min using Beckman GS-6R tabletop centrifuge.
Samples were analyzed by LC/MS/MS using a Waters 1525 μLC and Quattro Micro API MS. Where indicated, tripalmitolein was used as an internal standard to control for instrument variation.
Data is converted to % inhibition prior to curve fitting using the following equation: […]

Row | Compound | IC50 [µM]
1 | Cc1cccc(C(=O)Nc2ccc3nc(-c4c(Cl)cccc4Cl)[nH]c3c2)c1 [Example 1-11, N-[2-(2,6-Dichloro-phenyl)-3H-benzoimidazol-5-yl]-3-methyl-benzamide] | 6.9
2 | O=C(Nc1cccc(Cl)c1)c1ccc2nc(-c3cccc(Cl)c3Cl)[nH]c2c1 [Example 1-124, 2-(2,3-Dichloro-phenyl)-3H-benzoimidazole-5-carboxylic acid (3-chloro-phenyl)-amide] | 0.23
3 | COC(=O)c1ccc(-c2nc3ccc(C(=O)Nc4cccc(Cl)c4)cc3[nH]2)cc1 [Example 1-136, 4-[6-(3-Chloro-phenylcarbamoyl)-1H-benzoimidazol-2-yl]-benzoic acid methyl ester] | 12
4 | Cc1ccccc1CNC(=O)c1ccc2nc(-c3c(Cl)cccc3Cl)oc2c1 [Example 4-15, 2-(2,6-Dichloro-phenyl)-benzooxazole-6-carboxylic acid 2-methyl-benzylamide] | 6.8

same assay, conditions: inhibitory activity to human DGAT1, Table 1, values given as ranges

Row | Compound | IC50 [µM]
5 | CC(=O)Nc1ccc2nc(-c3c(Cl)cccc3Cl)[nH]c2c1 [Example 1-6] | 1 to 30
6 | CCOc1cccc(CCNC(=O)c2ccc3nc(-c4c(Cl)cccc4Cl)[nH]c3c2)c1 [Example 1-82, 2-(2,6-Dichloro-phenyl)-3H-benzoimidazole-5-carboxylic acid [2-(3-ethoxy-phenyl)-ethyl]-amide] | < 1
7 | Cc1nc2cc(NC(=O)c3ccc4[nH]c(-c5c(Cl)cccc5Cl)cc4c3)ccc2s1 [Example 3-1, 2-(2,6-dichloro-phenyl)-1H-indole-5-carboxylic acid (2-methyl-benzothiazol-5-yl)-amide] | 1 to 30
8 | COc1ccccc1CCNC(=O)c1ccc2nc(-c3c(Cl)cccc3Cl)oc2c1 [Example 4-11, 2-(2,6-Dichloro-phenyl)-benzooxazole-6-carboxylic acid [2-(2-methoxy-phenyl)-ethyl]-amide] | 30 to 100

test system: not given; test: not given; settings: not given

Row | Compound | melting point [°C]
9 | Cc1ccc(NC(=O)c2ccc3oc(-c4c(C)cc(OCC(=O)N(C)C)cc4C)nc3c2)cc1C [Example 4-23, 2-(4-Dimethylcarbamoylmethoxy-2,6-dimethylphenyl)-benzooxazole-5-carboxylic acid (3,4-dimethylphenyl)-amide] | 207 to 209
10 | Cc1ccc(NC(=O)c2ccc3c(c2)C(=O)N(c2c(C)cccc2C)C3=O)cc1C [Example 7-1, 2-(2,6-Dimethylphenyl)-1,3-dioxo-2,3-dihydro-1H-isoindole-5-carboxylic acid (3,4-dimethylphenyl)-amide] | 223 to 225
11 | Cc1ccc(NC(=O)c2ccc3c(c2)C(=O)N(c2c(Cl)cccc2Cl)C3=O)cc1C [Example 7-2, 2-(2,6-Dichlorophenyl)-1,3-dioxo-2,3-dihydro-1H-isoindole-5-carboxylic acid (3,4-dimethylphenyl)-amide] | 238 to 240

Reference: patent US8222248B2, “Organic compounds” (Novartis AG, priority 2006, dated 2012)
